Measurements: patent US10941126B2, “Bridged bicycloalkyl-substituted aminothiazoles and their methods of use” (Temple University—Of The Commonwealth System of Higher …, priority 2017, dated 2021)

Assays:
HL60 cell line = experiment: HL60 cell differentiation (CD11b); type: cell-based, human; conditions: four-day single-dose treatment
Description: (§1) For drug screening and dose response validations, GFP positive cells were detected by Millipore Guava flow cytometer (EMD, Millipore). Cell cycle analysis was performed using BD FACSCalibur™ by propidium iodide staining four days after drug treatment. Sub-G1 population percentage was also included to measure apoptotic cell proportion. Data were analyzed using FlowJo software version 10.2. For the cell differentiation analysis, cells were washed and stained with propidium iodide (PI), CD11 b (BD Biosciences, #562793) and the isotype control IgG (BD Biosciences, #555748). Flow cytometry analysis was performed on a Millipore Guava flow cytometer (EMD, Millipore). For the ID8 in vivo experiments, ascites was drained from 5-10 mice per group and incubated in ACK buffer (Thermo Fisher) to lyse red blood cells for 10 minutes, then washed. Ascites from each mouse was individually lysed and prepared for flow cytometry. Mononuclear cells collected were cultured for 4 hours in RPMI with 5% Fetal Bovine Serum and in the presence of Cell Stimulation Cocktail (plus protein transport inhibitors; eBioscience). […] Flow cytometry acquisition was performed on an LSRII cytometer (BD Biosciences) and data were analyzed using FlowJo software version 10.2.

SW48 colon cancer cells = experiment: SW48-luc tumors in NSG mice (bioluminescence); type: in vivo, mouse; conditions: 10 mg/kg
Description: SW48-luc cell line was generated by transfecting ffluc2ires-h2b-egfp into SW48 cells. GFP positive cells were sorted out one week after transfection and expanded for the in vivo experiments. NSG mice were then inoculated (i.p.) with 1×10^5 SW48-luc cells. One week later, at which time substantial tumor burden was evident by bioluminescence imaging, 5-20 mg/kg MC180295 or drug solvent was administered (i.p) every other day. 200 uL of diluted Pierce™ D-Luciferin, Monosodium Salt (Fisher, 88292) (working concentration: 15 mg/mL) was administered (i.p) into each mouse and was imaged using IVIS imaging system 5 minutes after the administration. Three vehicle treated mice and five drug treated mice were used in this study. MC180295 was dissolved in NMP, Captisol (20% w/v), PEG-400 and normal saline (PBS) in a ratio of 1:4:4:11. NMP first, followed by Captisol and PEG-400. PBS was added last.

YB5 = experiment: Cell cycle analysis and sub-G1 (propidium iodide); type: cell-based, human; conditions: four-day drug treatment
Description: as §1

SMARCA4 = experiment: Phosphoproteomics (LC-MS/MS) in YB5 cells; type: cell-based, human; conditions: 500 nM, 4 hr
Description: YB5 cells were treated with or without 500 nM MC180295 for 4 hours. Nuclear fraction was enriched using a hypotonic lysis buffer as previously described (Boden, G., Homko, C., Barrero, C. A., Stein, T. P., Chen, X., Cheung, P., Fecchio, C., Koller, S., and Merali, S. (2015), Sci Transl Med 7, 304-307). Proteins from the nuclear fraction were extracted with M-PER Mammalian Protein Extraction Reagent (Thermo Scientific, #78501) in the presence of protease and phosphatase inhibitors (Halt™ Protease Inhibitor Cocktail, #87785 and Halt™ Phosphatase Inhibitor Single-Use Cocktail, #78428). Phosphoproteins were enriched from 500 μg of nuclear extracted proteins, using a phosphoprotein purification kit (QIAGEN, #37101). Both samples were processed using in-StageTip method for digestion and peptide purification before performing LC-MS/MS proteomics analysis. The mass spectrometry proteomics data have been deposited to the ProteomeXchange Consortium via the PRIDE (Vizcaino, J. A., Csordas, A., del-Toro, N., Dianes, J. A., Griss, J., Lavidas, I., Mayer, G., Perez-Riverol, Y., Reisinger, F., Tement, T., et al. (2016). 2016 update of the PRIDE database and its related tools. Nucleic Acids Res 44, D447-456) partner repository with the dataset identifier PXD008040. […]

SW48 and HCT116 cells = experiment: qPCR for ERV expression; type: cell-based, human; conditions: Four-day treatment
Description: Total RNA was extracted using TRIzol reagent (Invitrogen) following the manufacturer's protocol and RNA concentrations were measured using Nanodrop. cDNAs were synthesized using High Capacity cDNA Reverse Transcription Kit (ThermoFisher) and qPCR was performed using either ready-made TaqMan® assays or SYBR-green using custom-designed primers. All the data were analyzed using Applied Biosystems software (StepOne™ Software V2.3). For all experiments, relative expression levels of the target genes were determined by calculating the 2^−ΔΔCt values. All experiments were performed at least in triplicates. Either GAPDH or 18S rRNA was used as an internal normalization control for protein coding genes. RPLPO was used as an internal normalization control for ERVs. All SYBR-green primers were described previously and are listed in Table 1 along with TaqMan® probes used.

## Nc1nc(N[C@H]2CC3CCC2C3)sc1C(=O)c1ccccc1[N+](=O)[O-] (stereo partly shown) [MC180295]
HL60 cell line
  differentiation marker CD11b: significant induction
SW48 colon cancer cells; after one-week drug exposure
  tumor shrinkage (luciferase activity): ~50%
SW48 colon cancer cells; after three weeks drug treatment
  tumor burden (luciferase activity): lower
YB5
  cell cycle arrest: no cell cycle arrest
  sub-G1 subpopulation: increase in the sub-G1 subpopulation
SMARCA4
  phosphorylation of SMARCA4 serine/threonine residues: dephosphorylated
SW48 and HCT116 cells
  ERV expression: activated the expression of several ERVs
